Values of other authors as cited in paper PMC11435065, “Inhibition of P-Glycoprotein Asymmetrically Alters the In Vivo Exposure Profile of SGC003F: A Novel Guanylate Cyclase Stimulator” (Pharmaceuticals, 2024).

Set-up: method as in PMID 24398461
Details: rats, one hour after administration, with 1.0 mg/kg tariquidar; cited from earlier work

CN(C)C(=O)C(CCN1CCC(O)(c2ccc(Cl)cc2)CC1)(c1ccccc1)c1ccccc1 [loperamide]
Increase of loperamide levels in the brain: 2.3 fold
